# Measured values from patent US5554637A, “Use of leflunomide for inhibiting interleukin 1 alpha” (priority 1993, dated 1996).
# “Also recorded” adds a separate entry of the source.
# Columns and labels:
# IL1alpha = IL1alpha synthesis and liberation in lipopolysaccharide-stimulated mononuclear cells from human blood (sandwich enzyme immuno test); type: cell-based; details: for activity at 10 µM: concentration 0.01 mmol/l; for activity at 100 µM: concentration 0.1 mmol/l; for effect on the IL1alpha level: summary in words of Table 1
# Experimental: The mononuclear cells from freshly isolated human citrate blood were enriched in accordance with known standard procedures (see Tiku et al., J. Immunol. 136/10 (1986) 3677):
# 10 ml of freshly prepared human citrate blood were carefully underlaid with 15 ml of Lynnphoprep^(R) (Molter GmbH, Heidelberg) and then centrifuged at 400 ×g for 40 min. at 20° C. The cell fraction which was visible as a white ring at the phase boundary was withdrawn with the aid of a syringe, diluted 1:1 (v/v) with PM-16 buffer (from Serva Feinbiochemica GmbH & Co. KG, Heidelberg) and then centrifuged, as above, for 10 min. The supernatant was washed with 10 ml of RPMI 1640 buffer (Gibco, Berlin) to which 300 mg/1 L-glutamine had previously been added. The washed cell fraction was taken up in 1 ml of RPMI 1640 to which 300 mg/1 L-glutamine, 25 mmol/1 HEPES (Gibco, Berlin), […] streptomycin and […] penicillin had previously been added. Using a cell counter (type IT, from Coulter Diagnostics, Krefeld), the cell suspension, which is composed of about 90% lymphocytes and 10% monocytes, was adjusted to about 5 million cells/mi. Cell viability was monitored before and after the inhibition experiments using the known lactate dehydrogenase method. In this case, no change in viability was observed.
# The synthesis and liberation of cellular IL1alpha was induced by adding a solution of 500 ng of lipopolysaccharide (Salmonella abortus equi, Sigma GmbH, Deisenhofen) in 0.01 ml of dimethyl sulfoxide/water (1:10, v/v) to 0.48 ml of the above-described cell fraction. At the same time, a solution of leflunomide or leflunomide metabolite in 0.01 ml of dimethylsulfoxide (for the final concentration in each case, see Tab. 1) was added to the cell fraction and the mixture was left at 37° C. for 20 h in a commercially available incubator. After cooling down to 0° C., the samples were centrifuged for 1 min. in a bench centrifuge and in each case 0.025 ml aliquots of the supernatant were examined for their IL1alpha content using a "sandwich" enzyme immuno test kit (from Biermann GmbH, Bad Nauheim) in accordance with the manufacturer's instructions. The control values were determined without the addition of leflunomide or its metabolites and set at 100%. In particular, any possible influence of dimethyl sulfoxide on the IL1alpha level was excluded by appropriate comparative measurements.
# cytokines = assay: synthesis and liberation of cytokines from human blood cells; type: cell-based; details: in words
# Experimental: The cell fraction which was visible as a white ring at the phase boundary was withdrawn with the aid of a syringe, diluted 1:1 (v/v) with PM-16 buffer (from Serva Feinbiochemica GmbH & Co. KG, Heidelberg) and then centrifuged, as above, for 10 min. […] Using a cell counter (type IT, from Coulter Diagnostics, Krefeld), the cell suspension, which is composed of about 90% lymphocytes and 10% monocytes, was adjusted to about 5 million cells/mi. Cell viability was monitored before and after the inhibition experiments using the known lactate dehydrogenase method.
# At the same time, a solution of leflunomide or leflunomide metabolite in 0.01 ml of dimethylsulfoxide (for the final concentration in each case, see Tab. 1) was added to the cell fraction and the mixture was left at 37° C. for 20 h in a commercially available incubator. […] The control values were determined without the addition of leflunomide or its metabolites and set at 100%.
# [1] = metabolism of leflunomide under the conditions of the cell experiment (HPLC); type: in vitro ADME, human; details: human, mononuclear cells; mononuclear cell fraction, incubation conditions of Example 1, HPLC
# mononuclear cells = assay: as above; type: in vitro ADME, human; details: in words; isolated human mononuclear cells
# [2] = Homo sapiens, control without substance = 100%, LPS 500 ng, 37° C., 20 h, read-out: IL1alpha in the supernatant, % +/- standard deviation
compound,measurement,setting,value
"C/C(O)=C(\C#N)C(=O)Nc1ccc(C(F)(F)F)cc1 [Leflunomide metabolite, N-(4-trifluoromethylphenyl)-2-cyano-3-hydroxycrotonamide]",activity at 10 µM,IL1alpha; [2],100 ± 5%
same,activity at 100 µM,IL1alpha; [2],98 ± 7%
same,effect on the IL1alpha level,IL1alpha,practically no effect on the IL1alpha level
same,effect on the synthesis and liberation of cytokines from human blood cells,cytokines,does not exhibit this advantageous effect
"Cc1oncc1C(=O)Nc1ccc(C(F)(F)F)cc1 [Leflunomide, N-(4-trifluoromethylphenyl)-5-methylisoxazole-4-carboxamide]",activity at 0.1 µM,"IL1alpha; Homo sapiens, concentration 0.0001 mmol/l, control without substance = 100%, LPS 500 ng, 37° C., 20 h, read-out: IL1alpha in the supernatant, % +/- standard deviation",83 ± 16%
same,activity at 5 µM,"IL1alpha; Homo sapiens, concentration 0.005 mmol/l, control without substance = 100%, LPS 500 ng, 37° C., 20 h, read-out: IL1alpha in the supernatant, % +/- standard deviation",62%
same,activity at 10 µM,IL1alpha; [2],54 ± 5%
same,activity at 50 µM,"IL1alpha; Homo sapiens, concentration 0.05 mmol/l, control without substance = 100%, LPS 500 ng, 37° C., 20 h, read-out: IL1alpha in the supernatant, % +/- standard deviation",22 ± 2%
same,activity at 100 µM,IL1alpha; [2],22 ± 5%
same,effect on the IL1alpha level,IL1alpha,clearly lowered
same,half-life,[1],~10 h
same,metabolism of leflunomide under the experimental conditions,mononuclear cells,"did not, to any appreciable extent, metabolize the leflunomide to its metabolites; also recorded: metabolized only very slowly; also recorded: no appreciable metabolism"
same,effect on the synthesis and liberation of cytokines from human blood cells,cytokines,strong inhibitory effect
